Patent US20200384053A1, “Ophthalmic Compositions and Medical Uses Thereof in Treatment of Myopia” (SunDragon Bio-medical Technology Co., priority 2019, published 2020)

System: Golden Syrian hamsters
Experiment: Monocular form deprivation (MFD) myopia animal model, axial length by A-scan ultrasonography
Assay type: in vivo
Conditions: after 21-day daily eye drop treatment
Protocol: 0.125% atropine eye drop was prepared under sterile conditions by dilution of 1% atropine ophthalmic solution with artificial tears (commercially available from Alcon Laboratories, Inc., Fort Worth, Tex., USA). The Extract A and/or Extract C were mixed with 5 ml artificial tears (commercially available from Alcon Laboratories, Inc., Fort Worth, Tex., USA) to reach a final concentration of 150 ng/ml by an oscillator.
3-week old Golden Syrian hamsters, each weighing 80 to 90 grams, were used for experiments. All animals were kept in a 12-hour light/dark cycle. All procedures were approved by the Institutional Animal Care and Use Committee of China Medical University and were conducted in accordance with the guidelines of the Use of Animals in Ophthalmic and Vision Research. Hamsters were raised with right eyelid fusion for 21 days. MFD was induced in the right eyes of the animals, with their left eyes serving as a control. The animals were randomly assigned to […] receiving daily applications of artificial tears or the eye drops prepared in Example 8, respectively, to both eyes. The treatment lasted for 21 days. The axial lengths of both eyes in each animal were measured on the 21st day following the start of the treatment by A-scan ultrasonography (PacScan 300 Plus, NY, USA).

Question: For `CN1[C@@H]2CC[C@H]1C[C@@H](OC(=O)C(CO)c1ccccc1)C2` (some centres unmarked) [Atropine, atropine], which “axial lengths of the non-MFD (left) eyes” value (Control 0.36±0.05 mm, differences not statistically significant) is on record?
Answer: 0.33±0.03 mm

Question: And the “axial lengths of the MFD (right) eyes” value (extracts 150 ng/ml, atropine 0.125%, Control 0.436±0.06 mm, p<0.05 vs Control)?
Answer: 0.358±0.01 mm
